Assay results as given in US8252520B2, “Methods and compounds for inhibiting Hec1 activity for the treatment of proliferative diseases” (Taivex Therapeutics Corporation, priority 2002, dated 2012).
Entries after “also recorded” stand apart in the source; their conditions may differ.

Tests used:
Type in all cases: cell-based
[1] = system: HeLa cells; assay: small-scale killing of dividing HeLa cells; conditions: dose of 20 (unit not given)
From the text: (§1) To determine whether the identified compounds would have the same effect in mammalian cells, we used HeLa cells to test the effects of these compounds in a small-scale experiment. […] These two compounds were named INH1 and INH2 (INH1, MW: 308.41; also referred to herein as IBT 13131; see FIG. 16; INH2, MW 382.49; also referred to herein as IBT 14664; see FIG. 16).

[2] = system: HeLa cells; assay: colony formation assay in HeLa cells; conditions: 12 days treatment, INH1 compared with INH2
Experimental: FIG. 12. Effects of INH1 and INH2 on colony formation of HeLa cells. Exponentially grown cells were seeded at 800 cells per 10-cm dish for 24 h and treated with indicated concentrations of INH1 (MW: 308.41; also referred to herein as IBT 13131; see FIG. 17), INH2 (MW 382.49; also referred to herein as IBT 14664; see FIG. 17), or control (DMSO less than 0.1%) for 12 days. The colonies were fixed and stained with methylene blue and counted. The values were averaged from a triplicate set of experiments, and error bars represent the SEM.
as §1

[3] = target: T1, interaction between Hec1 and Nek2 (Homo sapiens, UniProt O14777); assay: co-immunoprecipitation of Nek2 with Hec1 from treated HeLa cells; conditions: 10 and 20 μM, 24 hours
T1 construct: endogenous in cells; host or cells: HeLa cells
T1 sequence (O14777 1-642): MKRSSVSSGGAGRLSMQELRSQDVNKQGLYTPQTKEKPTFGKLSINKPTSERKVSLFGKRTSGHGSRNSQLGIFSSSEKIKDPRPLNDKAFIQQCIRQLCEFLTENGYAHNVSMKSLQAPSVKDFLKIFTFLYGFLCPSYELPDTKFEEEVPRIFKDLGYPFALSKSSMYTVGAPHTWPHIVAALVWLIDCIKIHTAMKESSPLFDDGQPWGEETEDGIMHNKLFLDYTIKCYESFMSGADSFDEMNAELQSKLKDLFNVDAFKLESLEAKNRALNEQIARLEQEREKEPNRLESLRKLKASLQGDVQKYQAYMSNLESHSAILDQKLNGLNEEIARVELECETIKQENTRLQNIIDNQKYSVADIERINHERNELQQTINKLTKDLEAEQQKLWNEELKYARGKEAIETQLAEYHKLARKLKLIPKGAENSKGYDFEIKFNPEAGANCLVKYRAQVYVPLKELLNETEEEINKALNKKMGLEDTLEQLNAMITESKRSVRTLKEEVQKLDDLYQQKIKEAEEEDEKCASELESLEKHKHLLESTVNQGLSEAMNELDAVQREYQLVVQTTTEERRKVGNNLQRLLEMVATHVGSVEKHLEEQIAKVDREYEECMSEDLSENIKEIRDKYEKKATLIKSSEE
Experimental: FIG. 13A. Dissociation of Hec1 and Nek2 in INH1I-treated cells. HeLa cells were grown in log-phase and treated with 0.08% DMSO or with the indicated concentration of INH1 for 24 hours. Cells were harvested for immunoprecipitation with the anti-Hec1 antibody mAb 9G3. The immunoprecipitates were analyzed by western blot with either mAb 9G3 or anti-Nek2 antibodies. […] Fractions of lysates were taken for straight western blot with anti-Rad50 antibodies as a loading control.
(§2) We performed a co-immunoprecipitation assay using cells treated with INH1 or INH2 to test whether these compounds disrupt the interaction between Hec1 and Nek2. […] Similarly, we examined whether Nek2 phosphorylation of Hec1 is diminished in the cells treated with these drugs by Western blotting with […], which recognizes specifically the phosphorylated S165 of Hec1.

[4] = system: Nek2 phosphorylation of Hec1 at S165; assay: Western blot of Hec1 S165 phosphorylation (anti-A439) in treated HeLa cells; conditions: 20 μM, 36 hours
Experimental: HeLa cells (lane 1) were treated with 0.08% DMSO (lane 2), 20 μM of INH1 (lane 3), INH2 (lane 4) or nocodazole (lane 5) for 36 hours before cells were harvested for immunoblotting with anti-Hec1, mAb9G3, for total Hec1 protein or anti-A439 for the phosphorylated Hec1 at S165 (pHEC1). Nek2 phosphorylation of Hec1 is undetectable in INH1 and INH2 treated cells (lanes 3 and 4).
as §2

[5] = system: HeLa cells; assay: microscopy of H2B-GFP labeled HeLa cells (chromosome segregation); conditions: 10 mM of INH1 (FIG. 14A)
Experimental: FIG. 14A. Micrographic pictures of H2B-GFP labeled HeLa cells treated with DMSO (Mock) or 10 mM of INH1. White arrows indicate lagging chromosomes during M phase.

[6] = system: HeLa cells; assay: flow cytometric (FACS) analysis of treated HeLa cells; conditions: 5 or 10 μM, 72 hrs
Experimental: FIG. 14B. Flow cytometric analysis of INH1 treated HeLa cells. Exponentially grown HeLa cells were seeded at 5×10^5 cells per 10-cm dish for 24 hrs and then treated with DMSO (control) or 5 or 10 μM of INH1 for 72 hrs. Cells were harvested and fixed in 70% ethanol for flow cytometry after staining with propidium iodide. Data represent one of three independent experiments.

[7] = system: RB-reconstituted Saos2 cells (SR5); assay: cell killing, trypan blue exclusion, RB-reconstituted Saos2 cells; conditions: 10 μM, 60 hours
Experimental: (§3) FIG. 15. Differential effect of INH1 in Rb positive and negative osteosarcoma Saos2 cells. Cells grown in log-phase were either untreated or treated with 0.08% DMSO or INH1 at the indicated concentrations for 60 hours. Surviving cells were counted by trypan blue exclusion and expressed as a percentage of the control. SR5 is a Rb reconstituted Saos-2 cell line. The values were the average of a triplicate set of experiments, with error bars representing the SEM.

[8] = system: parental (RB-negative) Saos2 cells; assay: cell killing, trypan blue exclusion, parental Saos2 cells; conditions: 10 μM, 60 hours
Experimental: as §3

Molecule	activity in killing dividing cells [1]	killing activity by colony formation [2]	Nek2 co-precipitated with anti-Hec1 antibodies [3]	Nek2 co-precipitated with anti-Hec1 antibodies ([3]; listed as INH 1)	Nek2 phosphorylation of Hec1 (S165) [4]	chromosome segregation phenotype [5]	cell death by FACS analysis [6]	cells killed [7]	cells killed [8]
Cc1ccc(-c2csc(NC(=O)c3ccccc3)n2)c(C)c1 [INH1]	significant activity	significant higher killing activity	very little or no Nek2 protein	Nek2 failed to be co-immunoprecipitated with Hec1	abolished; also recorded: undetectable	generated chromosome missegregations	led to cell death	< 5%	more than 50%
INH2	significant activity				abolished; also recorded: undetectable				
